Assay results from patent US11753373B2, “Protease inhibitors as antivirals” (priority 2021, dated 2023).

Columns and labels:
SARS-CoV-2 Omicron [1] = assay: Virus release assay using EpiAirway; format: cell-based; conditions: Severe acute respiratory syndrome coronavirus 2
in vivo [2] = conditions: female, Balb/c, mouse, po, 40 mg/kg
Method: Pharmacokinetics of test compounds was evaluated following an oral administration of a single dose (at 40 mg/kg) to female Balb/c mice.
Procedure: Test compounds were administered to Balb/c mice (n=3 per sex per time point) by a single oral gavage. The target dose level for oral administration was 40 mg/kg. Blood samples were collected at pre-dose, and at 0.083, 0.25, 0.50, 1, 2, 4, 6, 8, and 12 hours post-dose. Concentrations of test compound were determined by an LC-MS/MS. Non-compartmental Pharmacokinetic parameters of test compounds were analyzed using Phoenix WinNonlin 8.3.
Animal Dosing: All animals were fasted overnight through approximately 4 hours post-dose. Tap water was provided to mice ad Libitum. The mice were dosed orally at 10.0 ml/kg. The formulation volume of the test compound administered to each animal was calculated based on the body weight measured on the day of dosing.
Sample Collection and Analysis: Approximately 0.20 mL of blood was collected via orbital sinus vein puncture into EDTA-K2 tubes. Plasma samples were harvested by centrifugation and stored at −80° C. until analysis. The analytical method for test compound involved protein precipitation by adding acetonitrile containing 1% FA and internal standard (A-1-a synthesized in house or Tolbutamide purchased from Sigma), and final analysis by LC-MS/MS. A standard curve was prepared using mouse plasma for the test compound. The calibration curve was linear over a concentration range of 1.0 to 1000 ng/mL.
(§1) Pharmacokinetic and Statistic Analysis: The reported plasma concentrations of test compounds were used to determine pharmacokinetic parameters, using a non-compartmental model for data analysis (Phoenix WinNonlin 8.3). The common pharmacokinetic parameters were calculated, whenever possible, from the plasma concentration-versus-time data. Nominal doses and sampling times were used, except where deviations were noted. […] BQL after Tmax would not participate in calculation of PK parameters.

[3] = format: in vitro ADME, Human; conditions: extraction ratio, compound at 1 uM, human liver microsomes 0.5 mg/mL
SARS-CoV-2 = assay: Anti-viral in vitro PRNT assay in Vero E6 cells; format: cell-based; conditions: Severe acute respiratory syndrome coronavirus 2, Vero C1008, 72 h; Vero E6 cells, 1000 pfu, 3 days, plaque reduction; read-out: anti-SARS-CoV2 (PRNT) in Vero E6 EC50
[4] = format: in vitro ADME; conditions: extraction ratio, compound at 1 uM
in vivo [5] = conditions: female, beagle, dog, po, 40 mg/kg
Method: Pharmacokinetics of test compounds was evaluated following an oral administration of a single dose (at 40 mg/kg) to female Beagle dogs.
Procedure: Test compounds were orally administered to beagle dogs (single dose). The target dose level for oral administration was 40 mg/kg. Blood samples were collected at pre-dose, and at 0.083, 0.25, 0.50, 1, 2, 4, 6, 8, and 24 hours post-dose. Concentrations of test compound were determined by an LC-MS/MS. Non-compartmental Pharmacokinetic parameters of test compounds were analyzed using Phoenix WinNonlin 8.3.
Animal Dosing: All animals were fasted ˜17-19 h prior to dosing and fed approximately 4 hours after dosing. […] The dogs were dosed at 10.0 ml/kg. The formulation volume of the test compound administered to each animal was calculated based on the body weight measured on the day of dosing.
Sample Collection and Analysis: Approximately 1 mL of blood was collected by jugular vein puncture into tubes containing EDTA-K2 anticoagulant. Plasma samples were harvested by centrifugation (2000 g for 10 minutes at 4° C. within 2 hours after collection) and stored at −80° C. until analysis. The analytical method for test compound involved protein precipitation by adding acetonitrile containing 1% FA and internal standard (A-1-a synthesized in house or Tolbutamide purchased from Sigma), and final analysis by LC-MS/MS. A standard curve was prepared using dog plasma for the test article. The calibration curve was linear over a concentration range of 1.0 to 1000 ng/mL.
as §1

SARS-CoV-2 Omicron [6] = assay: FRNT assay in A549-hACE2 cells; format: cell-based; conditions: Severe acute respiratory syndrome coronavirus 2, 24 h
SARS-CoV-2 Omicron [7] = assay: FRNT assay in Vero E6 cells; format: cell-based; conditions: Severe acute respiratory syndrome coronavirus 2, Vero C1008, 24 h

For `CC(C)C[C@H](NC(=O)c1cc2ccccc2[nH]1)C(=O)N[C@@H](C[C@@H]1CCNC1=O)C(O)S(=O)(=O)[O-].[Na+]` (stereo partly drawn) [Compound A-1-d, sodium (2S)-2-((S)-2-(1H-indole-2-carboxamido)-4-methylpentanamido)-1-hydroxy-3-((S)-2-oxopyrrolidin-3-yl)propane-1-sulfonate], the EC50 (SARS-CoV-2 Omicron [1]) was 12 to 41 nM, the EC90 (SARS-CoV-2 Omicron [1]) was 12 to 41 nM and the AUC0-t (in vivo [2]) was 2620 ng·h/mL. It also gave a Cmax (in vivo [2]) of 1610 ng/mL, a Tmax (in vivo [2]) of 0.5 h and a half-life (in vivo [2]) of 0.893 h. For the same compound, the “Liver Microsomal Stability (ER) Human” value [3] was 0.08, the EC50 (SARS-CoV-2) was 1060 nM and the “Liver Microsomal Stability (ER) SD rat” value ([4]; SD rat liver microsomes 0.5 mg/mL) was 0.12. For the same compound, the “Liver Microsomal Stability (ER) Beagle dog” value ([4]; beagle dog liver microsomes 0.5 mg/mL) was 0.04, the “Liver Microsomal Stability (ER) Mouse” value ([4]; mouse liver microsomes 0.5 mg/mL) was 0.10 and the AUC0-t (in vivo [5]) was 95900 ng·h/mL. It also gave a Cmax (in vivo [5]) of 27800 ng/mL, a Tmax (in vivo [5]) of 2 h and a bioavailability (in vivo [5]) of over 83%. For the same compound, the half-life (in vivo [5]) was 2.73 h, the EC50 (SARS-CoV-2 Omicron [6]) was 130 nM and the EC90 (SARS-CoV-2 Omicron [6]) was 280 nM. The EC50 (SARS-CoV-2 Omicron [7]) was 360 nM and the EC90 (SARS-CoV-2 Omicron [7]) was 410 nM.
